From BindingDB's records for patent US20260049089 (Shanghai Apeiron Therapeutics Company, 2026)

Assays:
[1] = biological target: T1, GTPase KRas (G12D) (Homo sapiens, UniProt P01116, G12D); test: KRAS-GDP Protein Assay
Method: 6> Add 5 μL of KRAS solution prepared with Buffer 1 to each well of the high-signal control group and compound test wells. Add 5 μL of Buffer 1 to each well of the low-signal control group. The final concentration of KRAS in the reaction is 5 nM (initially 40 nM, optimized to 5 nM). Incubate at room temperature for 1 hour.7> Add 5 μL of a solution containing SOS1 and GTP prepared with Buffer 2 to each well. Final concentrations in the reaction: 50 nM for SOS1 (initially 250 nM) and 125 μM for GTP (initially 625 μM). Incubate at room temperature for 1 hour.8> Add 5 μL of a solution containing cRAF and AlphaLISA Nickel Acceptor beads prepared with Buffer 2 to each well. Final concentrations in the reaction: 50 nM for cRAF and 20 μg/mL for AlphaLISA Nickel Acceptor beads. Incubate at room temperature for 1 hour.9> Add 5 μL of an AlphaScreen GSH Donor beads solution prepared with Buffer 2 to each well. Final concentration in the reaction: 20 μg/mL. Incubate at room temperature for 1 hour.10> Measure the signal values using an EnVision plate reader. Excitation wavelength: 680 nm, Emission wavelength: 615 nm.

[2] = biological target: T1, GTPase KRas (G12D); test: KRAS-GCP Protein Assay
Method: 6> Add 5 μL of KRAS solution prepared with Buffer 1 to each well of the high-signal control group and compound test wells; […]. The final concentration of KRAS in the reaction is 5 nM. Incubate at room temperature for 1 hour.7> Add 5 μL of Buffer 2 to each well. Incubate at room temperature for 1 hour.8> Add 5 μL of a solution containing cRAF and AlphaLISA Nickel Acceptor beads prepared with Buffer 2 to each well. Final concentrations in the reaction: 50 nM for cRAF and 20 μg/mL for AlphaLISA Nickel Acceptor beads. Incubate at room temperature for 1 hour.9> Add 5 μL of an AlphaScreen GSH Donor beads solution prepared with Buffer 2 to each well. Final concentration in the reaction: 20 μg/mL. Incubate at room temperature for 1 hour.10> Measure the signal values using an EnVision plate reader.

[3] = biological target: T1, GTPase KRas (G12D); test: KRAS-GTP Protein Assay
Method: 6> Mix the prepared protein solution with the SOS1-GTP solution (at the same concentration as used for the GDP protein assay) in a 1:1 volume ratio. Pre-incubate the mixture at room temperature for 1 hour.7> Add 10 μL of the mixture from Step I to each well of the high-signal control group and compound test wells. For the low-signal control group, add 5 μL of Buffer 1 and 5 μL of the SOS1-GTP mixture to each well. Incubate at room temperature for 1 hour.8> Add 5 μL of a solution containing cRAF and AlphaLISA Nickel Acceptor beads prepared with Buffer 2 to each well. Final concentrations in the reaction: 50 nM for cRAF and 20 μg/mL for AlphaLISA Nickel Acceptor beads. Incubate at room temperature for 1 hour.9> Add 5 μL of an AlphaScreen GSH Donor beads solution prepared with Buffer 2 to each well. Final concentration in the reaction: 20 μg/mL. Incubate at room temperature for 1 hour.10> Measure the signal values using an EnVision plate reader. Excitation wavelength: 680 nm, Emission wavelength: 615 nm.

T1 sequence (P01116 whole entry G12D): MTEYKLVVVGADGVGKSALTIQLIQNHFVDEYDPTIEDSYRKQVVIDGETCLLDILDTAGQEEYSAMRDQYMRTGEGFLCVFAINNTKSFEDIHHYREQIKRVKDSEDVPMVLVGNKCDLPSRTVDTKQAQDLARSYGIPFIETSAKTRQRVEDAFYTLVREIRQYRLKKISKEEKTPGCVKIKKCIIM

CN1CCCCc2c(F)ccc3cc(O)cc(c23)-c2c1cc1c(N3CC4CCC(C3)N4)nc(OC[C@@]34CCCN3C[C@H](F)C4)nc1c2F [US20260049089, Example 3]
IC50 [1]: 2.31 nM | IC50 [2]: > 1000 nM | IC50 [3]: 3.24 nM

Oc1cc2c3c(c(F)ccc3c1)CCCCCNc1cc3c(N4CC5CCC(C4)N5)nc(OC[C@@]45CCCN4C[C@H](F)C5)nc3c(F)c1-2 [US20260049089, Example 5]
IC50 [1]: 2.06 nM | IC50 [2]: 232 nM | IC50 [3]: 2.63 nM

O=C1CCCCc2c(F)ccc3cc(O)cc(c23)-c2c(cc3c(N4CC5CCC(C4)N5)nc(OC[C@@]45CCCN4C[C@H](F)C5)nc3c2F)N1 [US20260049089, Example 4]
IC50 [1]: 2.2 nM | IC50 [2]: 94.4 nM | IC50 [3]: 3.5 nM

Oc1cc2c3c(c(F)ccc3c1)CCCCNc1cc3c(N4CC5CCC(C4)N5)nc(OC[C@@]45CCCN4C[C@H](F)C5)nc3c(F)c1-2 [US20260049089, Example 2]
IC50 [1]: 2.87 nM | IC50 [2]: > 1000 nM | IC50 [3]: 3.23 nM
